Numbered stars: 1 amine (or outer) side, 2 acyl side, 3 side chain; on linkers, the order of the positions; unused ones are H or OH. Bridge positions count the residues as written; N and C are the ends. Peptide text beside a SMILES is read from it. * marks the point of attachment. C20 diacid = O=C(O)CCCCCCCCCCCCCCCCCCC(=O)*; γGlu = O=C(O)[C@H](CCC(=O)[*:2])N[*:1]

The target of the test is T1, hAMY3 receptor (Homo sapiens, UniProt O60896+P30988).
T1 sequence (P30988 25-474): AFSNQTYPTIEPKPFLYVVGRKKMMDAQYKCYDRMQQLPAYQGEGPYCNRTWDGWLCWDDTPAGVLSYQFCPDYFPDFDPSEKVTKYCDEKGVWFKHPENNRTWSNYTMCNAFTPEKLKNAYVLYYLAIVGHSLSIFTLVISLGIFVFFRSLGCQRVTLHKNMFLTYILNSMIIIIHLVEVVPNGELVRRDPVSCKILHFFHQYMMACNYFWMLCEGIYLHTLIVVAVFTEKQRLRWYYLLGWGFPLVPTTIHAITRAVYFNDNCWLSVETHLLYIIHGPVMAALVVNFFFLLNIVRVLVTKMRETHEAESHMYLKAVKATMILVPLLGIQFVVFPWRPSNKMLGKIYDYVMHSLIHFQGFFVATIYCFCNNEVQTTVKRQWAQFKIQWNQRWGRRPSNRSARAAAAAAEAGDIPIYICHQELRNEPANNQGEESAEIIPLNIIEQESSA
T1 sequence (O60896 24-148 partner): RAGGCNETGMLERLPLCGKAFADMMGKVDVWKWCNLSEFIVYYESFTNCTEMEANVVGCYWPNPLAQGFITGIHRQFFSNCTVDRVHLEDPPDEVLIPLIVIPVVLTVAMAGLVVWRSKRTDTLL
The test is described as follows: cAMP assay for in vitro receptor activation, hAMY3-R. Type of test: cell-based. The note with it: cAMP assay, hAMY3 receptor; read-out: hAMY3R EC50. Put shortly:
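Accumulated cAMP was detected by time-resolved FRET one hour after reagent addition. Beforehand, hAMY3-R-overexpressing monoclonal cells (2000/well, DPBS, 0.05% casein, 0.5 mM IBMX) received graded doses of compound for 30 min at room temperature; human amylin served as positive control.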
In general terms: Cyclic AMP is a second messenger, typically raised through Gs and lowered through Gi signalling.
The EC50 is the concentration giving half of the maximal effect. `CC(C)C[C@H](NC(=O)[C@H](CCCNC(=N)N)NC(=O)[C@H](CCC(N)=O)NC(=O)[C@@H](NC(=O)[C@@H](NC(=O)[C@@H]1CSSC[C@H](NC(=O)CN)C(=O)N[C@@H](CCCNC(=N)N)C(=O)N[C@@H](Cc2ccccc2)C(=O)NCC(=O)N[C@@H]([C@@H](C)O)C(=O)N1)[C@@H](C)O)C(C)C)C(=O)N[C@@H](C)C(=O)N[C@@H](Cc1c[nH]cn1)C(=O)N[C@@H](Cc1ccccc1)C(=O)N[C@@H](CC(C)C)C(=O)N[C@@H](Cc1ccc(O)cc1)C(=O)N[C@@H](CCC(N)=O)C(=O)N[C@@H](Cc1ccccc1)C(=O)N[C@H](C(=O)N[C@@H](CC(=O)O)C(=O)N[C@@H](CCCCN)C(=O)N[C@@H](CC(=O)O)C(=O)N[C@@H](CCCCN)C(=O)N[C@@H](CC(=O)O)C(=O)N[C@@H](CC(N)=O)C(=O)N[C@H](C(=O)N[C@@H](C)C(=O)N1CCC[C@H]1C(=O)N[C@@H](CCCNC(=N)N)C(=O)N[C@H](C(=O)N[C@@H](CCCCN)C(=O)N[C@H](C(=O)NCC(=O)N1CCC[C@H]1C(=O)N[C@@H](CCC(N)=O)C(=O)NCC(=O)N[C@@H](Cc1ccc(O)cc1)C(N)=O)C(C)C)[C@@H](C)O)C(C)C)[C@@H](C)O` [compound 369] (H-GCRFGTCTVQRLAHFLYQFTDKDKDNVAPRTKVGPQGY-NH2; disulfide 2-7; N-terminus assumed): the EC50 worked out at 0.017 nM.
In the case of `CC[C@H](C)[C@H](NC(=O)[C@H](CCC(N)=O)NC(=O)[C@H](Cc1c[nH]cn1)NC(=O)[C@H](C)NC(=O)[C@H](CC(C)C)NC(=O)[C@H](CCCNC(=N)N)NC(=O)[C@H](CCC(N)=O)NC(=O)[C@@H](NC(=O)[C@@H](NC(=O)[C@@H]1CSSC[C@H](NC(=O)[C@H](CCCCN)NC(=O)CC[C@H](NC(=O)CCCCCCCCCCCCCCCCCCC(=O)O)C(=O)O)C(=O)N[C@@H](CC(N)=O)C(=O)N[C@@H](Cc2ccccc2)C(=O)N[C@@H](C)C(=O)N[C@@H]([C@@H](C)O)C(=O)N1)[C@@H](C)O)C(C)C)C(=O)N[C@@H](Cc1ccc(O)cc1)C(=O)N[C@@H](CCC(N)=O)C(=O)N[C@@H](Cc1ccccc1)C(=O)N[C@H](C(=O)N[C@@H](CC(=O)O)C(=O)N[C@@H](CCCCN)C(=O)N[C@@H](CC(=O)O)C(=O)N[C@@H](CCCCN)C(=O)N[C@@H](CC(=O)O)C(=O)N[C@@H](CC(N)=O)C(=O)N[C@H](C(=O)N[C@@H](C)C(=O)N1CCC[C@H]1C(=O)N[C@@H](CCCNC(=N)N)C(=O)N[C@H](C(=O)N[C@@H](CCC(=O)O)C(=O)N[C@H](C(=O)NCC(=O)N[C@@H](CO)C(=O)N[C@@H](CC(N)=O)C(=O)NCC(=O)N[C@@H](Cc1ccc(O)cc1)C(N)=O)C(C)C)[C@@H](C)O)C(C)C)[C@@H](C)O` [compound 370] ({C20 diacid-γGlu}-KCNFATCTVQRLAHQIYQFTDKDKDNVAPRTEVGSNGY-NH2; disulfide 2-7), the EC50 is 0.017 nM.
The value for `CC[C@H](C)[C@H](NC(=O)[C@H](CCC(N)=O)NC(=O)[C@H](Cc1c[nH]cn1)NC(=O)[C@H](C)NC(=O)[C@H](CC(C)C)NC(=O)[C@H](CCCNC(=N)N)NC(=O)[C@H](CCC(N)=O)NC(=O)[C@@H](NC(=O)[C@@H](NC(=O)[C@@H]1CSSC[C@H](NC(=O)CN)C(=O)N[C@@H](CCCNC(=N)N)C(=O)N[C@@H](Cc2ccccc2)C(=O)NCC(=O)N[C@@H]([C@@H](C)O)C(=O)N1)[C@@H](C)O)C(C)C)C(=O)N[C@@H](Cc1ccc(O)cc1)C(=O)N[C@@H](CCC(N)=O)C(=O)N[C@@H](Cc1ccccc1)C(=O)N[C@H](C(=O)N[C@@H](CC(=O)O)C(=O)N[C@@H](CCCCN)C(=O)N[C@@H](CC(=O)O)C(=O)N[C@@H](CCCCN)C(=O)N[C@@H](CC(=O)O)C(=O)N[C@@H](CC(N)=O)C(=O)N[C@H](C(=O)N[C@@H](C)C(=O)N1CCC[C@H]1C(=O)N[C@@H](CCCNC(=N)N)C(=O)N[C@H](C(=O)N[C@@H](CCCCN)C(=O)N[C@H](C(=O)N[C@@H](CO)C(=O)N1CCC[C@H]1C(=O)N[C@@H](CC(N)=O)C(=O)NCC(=O)N[C@@H](Cc1ccc(O)cc1)C(N)=O)[C@@H](C)CC)[C@@H](C)O)C(C)C)[C@@H](C)O` [compound 371] (H-GCRFGTCTVQRLAHQIYQFTDKDKDNVAPRTKISPNGY-NH2; disulfide 2-7; N-terminus assumed) was 0.019 nM; that for `CC[C@H](C)[C@H](NC(=O)[C@H](CCC(N)=O)NC(=O)[C@H](CC(N)=O)NC(=O)[C@H](C)NC(=O)[C@H](CC(C)C)NC(=O)[C@H](CCCNC(=N)N)NC(=O)[C@H](CCC(N)=O)NC(=O)[C@@H](NC(=O)[C@@H](NC(=O)[C@@H]1CSSC[C@H](NC(=O)CNC(=O)CC[C@H](NC(=O)CCCCCCCCCCCCCCCCCCC(=O)O)C(=O)O)C(=O)N[C@@H](CCCNC(=N)N)C(=O)N[C@@H](Cc2ccccc2)C(=O)NCC(=O)N[C@@H]([C@@H](C)O)C(=O)N1)[C@@H](C)O)C(C)C)C(=O)N[C@@H](Cc1ccc(O)cc1)C(=O)N[C@@H](CCC(N)=O)C(=O)N[C@@H](Cc1ccccc1)C(=O)N[C@H](C(=O)N[C@@H](CC(=O)O)C(=O)N[C@@H](CCCCN)C(=O)N[C@@H](CC(=O)O)C(=O)N[C@@H](CCCCN)C(=O)N[C@@H](CC(=O)O)C(=O)N[C@@H](CC(N)=O)C(=O)N[C@H](C(=O)N[C@@H](C)C(=O)N1CCC[C@H]1C(=O)N[C@@H](CCCNC(=N)N)C(=O)N[C@H](C(=O)N[C@@H](CC(N)=O)C(=O)N[C@H](C(=O)NCC(=O)N1CCC[C@H]1C(=O)N[C@@H](CCC(N)=O)C(=O)NCC(=O)N[C@@H](Cc1ccc(O)cc1)C(N)=O)C(C)C)[C@@H](C)O)C(C)C)[C@@H](C)O` [compound 372] ({C20 diacid-γGlu}-GCRFGTCTVQRLANQIYQFTDKDKDNVAPRTNVGPQGY-NH2; disulfide 2-7) was 0.02 nM; that for `CC[C@H](C)[C@H](NC(=O)[C@H](CCC(N)=O)NC(=O)[C@H](Cc1c[nH]cn1)NC(=O)[C@H](C)NC(=O)[C@H](CC(C)C)NC(=O)[C@H](CCCNC(=N)N)NC(=O)[C@H](CCC(N)=O)NC(=O)[C@@H](NC(=O)[C@@H](NC(=O)[C@@H]1CSSC[C@H](NC(=O)CN)C(=O)N[C@@H](CCCNC(=N)N)C(=O)N[C@@H](Cc2ccccc2)C(=O)NCC(=O)N[C@@H]([C@@H](C)O)C(=O)N1)[C@@H](C)O)C(C)C)C(=O)N[C@@H](Cc1ccc(O)cc1)C(=O)N[C@@H](CCC(N)=O)C(=O)N[C@@H](Cc1ccccc1)C(=O)N[C@H](C(=O)N[C@@H](CC(=O)O)C(=O)N[C@@H](CCCCN)C(=O)N[C@@H](CC(=O)O)C(=O)N[C@@H](CCCCN)C(=O)N[C@@H](CC(=O)O)C(=O)N[C@@H](CC(N)=O)C(=O)N[C@H](C(=O)N[C@@H](C)C(=O)N1CCC[C@H]1C(=O)N[C@@H](CCCNC(=N)N)C(=O)N[C@@H](CO)C(=O)N[C@@H](CCCCN)C(=O)N[C@H](C(=O)NCC(=O)N1CCC[C@H]1C(=O)N[C@@H](CCC(N)=O)C(=O)NCC(=O)N[C@@H](Cc1ccc(O)cc1)C(N)=O)C(C)C)C(C)C)[C@@H](C)O` [compound 375] (H-GCRFGTCTVQRLAHQIYQFTDKDKDNVAPRSKVGPQGY-NH2; disulfide 2-7; N-terminus assumed) was 0.022 nM.
Take `CC(C)C[C@H](NC(=O)[C@H](CCCNC(=N)N)NC(=O)[C@H](CCC(N)=O)NC(=O)[C@@H](NC(=O)[C@@H](NC(=O)[C@@H]1CSSC[C@H](NC(=O)CN)C(=O)N[C@@H](CCCNC(=N)N)C(=O)N[C@@H](Cc2ccccc2)C(=O)N[C@@H](C)C(=O)N[C@@H]([C@@H](C)O)C(=O)N1)[C@@H](C)O)C(C)C)C(=O)N[C@@H](C)C(=O)N[C@@H](Cc1c[nH]cn1)C(=O)N[C@@H](Cc1ccccc1)C(=O)N[C@@H](CC(C)C)C(=O)N[C@@H](Cc1ccc(O)cc1)C(=O)N[C@@H](CCC(N)=O)C(=O)N[C@@H](Cc1ccccc1)C(=O)N[C@H](C(=O)N[C@@H](CC(=O)O)C(=O)N[C@@H](CCCCN)C(=O)N[C@@H](CC(=O)O)C(=O)N[C@@H](CCCCN)C(=O)N[C@@H](CC(=O)O)C(=O)N[C@@H](CC(N)=O)C(=O)N[C@H](C(=O)N[C@@H](C)C(=O)N1CCC[C@H]1C(=O)N[C@@H](CCCNC(=N)N)C(=O)N[C@H](C(=O)N[C@@H](CCCCN)C(=O)N[C@H](C(=O)NCC(=O)N1CCC[C@H]1C(=O)N[C@@H](CCC(N)=O)C(=O)NCC(=O)N[C@@H](Cc1ccc(O)cc1)C(N)=O)C(C)C)[C@@H](C)O)C(C)C)[C@@H](C)O` [compound 377] (H-GCRFATCTVQRLAHFLYQFTDKDKDNVAPRTKVGPQGY-NH2; disulfide 2-7; N-terminus assumed): the EC50 came out at 0.024 nM.

Values taken from patent US12139520B2 (priority 2020, dated 2024).
